Assay results: ChEMBL document CHEMBL5120907, “Triculamin: An Unusual Lasso Peptide with Potent Antimycobacterial Activity” (J Nat Prod, 2022)
≈ marks a conversion by molar mass, not a printed value. Where a SMILES comes first, the peptide text is derived from it. Bridges are numbered along the chain shown (N, C = ends).

How the values were obtained:
[1] = system: Pseudomonas aeruginosa; assay: Antibacterial activity against Pseudomonas aeruginosa DSM 19880 assessed as reduction in bacterial growth measured after 3 days by broth microdilution method; format: functional; conditions: DSM 19880, 72 h, time 3 day
[2] = system: Mycolicibacterium smegmatis; assay: Antimycobacterial activity against Mycobacterium smegmatis DSM 43080 assessed as reduction in bacterial growth at late-exponential phase at 10 times of MIC measured up to 48 hrs by time killing assay; format: functional, organism-based; conditions: TDE = time-dependent effect
[3] = system: Klebsiella oxytoca; assay: Bactericidal activity against Klebsiella oxytoca DSM 5175 assessed as reduction in colony count and measured after 3 days by agar diffusion assay; format: functional; conditions: DSM 5175, 72 h, time 3 day
[4] = system: Klebsiella oxytoca; assay: Antibacterial activity against Klebsiella oxytoca DSM 5175 assessed as reduction in bacterial growth measured after 3 days by broth microdilution method; format: functional; conditions: DSM 5175, 72 h, time 3 day
[5] = system: Mycolicibacterium smegmatis; assay: Antibacterial activity against Mycobacterium smegmatis DSM 43080 assessed as reduction in bacterial growth measured after 3 days by broth microdilution method; format: functional; conditions: DSM 43080, 72 h, time 3 day
[6] = system: Mycolicibacterium phlei; assay: Antibacterial activity against Mycobacterium phlei DSM 43239 assessed as reduction in bacterial growth measured after 3 days by broth microdilution method; format: functional; conditions: DSM 43239, 72 h, time 3 day
[7] = Stability of the compound assessed as carboxypeptidase Y mediated compound digestion by measuring Mycobacterium smegmatis DSM 43080 zone of inhibition incubated for 4 hrs by agar diffusion assay; format: ADME
[8] = system: Mycolicibacterium phlei; assay: Bactericidal activity against Mycobacterium phlei DSM 43239 assessed as reduction in colony count and measured after 3 days by agar diffusion assay; format: functional; conditions: DSM 43239, 72 h, time 3 day
[9] = system: Enterococcus faecium; assay: Bactericidal activity against Enterococcus faecium DSM 20477 assessed as reduction in colony count and measured after 3 days by agar diffusion assay; format: functional; conditions: DSM 20477, 72 h, time 3 day
[10] = system: Acinetobacter baumannii; assay: Bactericidal activity against Acinetobacter baumannii […] assessed as reduction in colony count and measured after 3 days by agar diffusion assay; format: functional; conditions: 72 h, time 3 day
[11] = system: Enterobacter cloacae; assay: Antibacterial activity against Enterobacter cloacae DSM 30054 assessed as reduction in bacterial growth measured after 3 days by broth microdilution method; format: functional; conditions: DSM 30054, 72 h, time 3 day
[12] = system: Mycolicibacterium smegmatis; assay: Bactericidal activity against Mycobacterium smegmatis DSM 43080 assessed as reduction in colony count and measured after 3 days by agar diffusion assay; format: functional; conditions: DSM 43080, 72 h, time 3 day
[13] = system: Enterobacter cloacae; assay: Bactericidal activity against Enterobacter cloacae DSM 30054 assessed as reduction in colony count and measured after 3 days by agar diffusion assay; format: functional; conditions: DSM 30054, 72 h, time 3 day
[14] = Stability of the compound assessed as carboxypeptidase Y mediated compound digestion pretreated at 95 degreeC for 4 hrs followed by protease addition incubated for 4 hrs by HPLC analysis; format: ADME
[15] = system: Mycolicibacterium smegmatis; assay: Antimycobacterial activity against Mycobacterium smegmatis DSM 43080 assessed as reduction in bacterial growth at mid-exponential phase at 10 times of MIC and measured up to 24 hrs by time killing assay; format: functional, organism-based; conditions: TDE = time-dependent effect
[16] = system: Enterococcus faecium; assay: Antibacterial activity against Enterococcus faecium DSM 20477 assessed as reduction in bacterial growth measured after 3 days by broth microdilution method; format: functional; conditions: DSM 20477, 72 h, time 3 day
[17] = system: Staphylococcus aureus; assay: Bactericidal activity against Staphylococcus aureus DSM 20231 assessed as reduction in colony count and measured after 3 days by agar diffusion assay; format: functional; conditions: DSM 20231, 72 h, time 3 day
[18] = system: Bacillus cereus; assay: Antibacterial activity against Bacillus cereus DSM 31 assessed as reduction in bacterial growth measured after 3 days by broth microdilution method; format: functional; conditions: DSM 31, 72 h, time 3 day
[19] = system: Acinetobacter baumannii; assay: Antibacterial activity against Acinetobacter baumannii […] assessed as reduction in bacterial growth measured after 3 days by broth microdilution method; format: functional; conditions: 72 h, time 3 day
[20] = Thermal stability of compound in water incubated at 95 degreeC for 4 hrs by HPLC analysis; format: physicochemical; conditions: buffer
[21] = system: Bacillus cereus; assay: Bactericidal activity against Bacillus cereus DSM 31 assessed as reduction in colony count and measured after 3 days by agar diffusion assay; format: functional; conditions: DSM 31, 72 h, time 3 day
[22] = Thermal stability of compound in water assessed as antibacterial activity against Mycobacterium smegmatis DSM 43080 by measuring zone of inhibition incubated up to 8 hrs at 95 degreeC by agar diffusion assay; format: physicochemical; conditions: buffer
[23] = system: Staphylococcus aureus; assay: Antibacterial activity against Staphylococcus aureus DSM 20231 assessed as reduction in bacterial growth measured after 3 days by broth microdilution method; format: functional; conditions: DSM 20231, 72 h, time 3 day
[24] = system: Pseudomonas aeruginosa; assay: Bactericidal activity against Pseudomonas aeruginosa DSM 19880 assessed as reduction in colony count and measured after 3 days by agar diffusion assay; format: functional; conditions: DSM 19880, 72 h, time 3 day

In the case of `CC[C@H](C)[C@H](NC(=O)CNC(=O)[C@@H]1CC(=O)N[C@@H](CO)C(=O)N[C@@H](CCCCN)C(=O)N[C@@H](CCCCN)C(=O)N[C@@H](CO)C(=O)N[C@@H](CCCCN)C(=O)N2CCC[C@H]2C(=O)NCC(=O)N1)C(=O)N[C@@H](CCCNC(=N)N)C(=O)NCC(=O)N[C@@H](CCCCN)C(=O)NCC(=O)N[C@H](C(=O)N[C@@H](CCCNC(=N)N)C(=O)NCC(=O)O)C(C)C` (SKKSKPGDGIRGKGVRG-OH; lactam N-8), the MIC [1] is reported as greater than 32 µg/mL, the Activity [2] is reported as “Tde” and the MBC [3] is reported as greater than 32 µg/mL. For the same compound, the MIC [4] was greater than 32 µg/mL, the MIC [5] was 0.125 µg/mL (≈ 0.0731 µM) and the MIC [6] was 0.03 µg/mL (≈ 0.0176 µM). The Stability [7] was “Stable”, the MBC [8] was greater than 0.125 µg/mL and the MBC [9] was greater than 32 µg/mL. For the same compound, the MBC [10] was greater than 32 µg/mL, the MIC [11] was greater than 32 µg/mL and the MBC [12] was 0.5 µg/mL (≈ 0.293 µM). The MBC [13] was greater than 32 µg/mL, the Stability [14] was “Stable” and the Activity [15] was “Tde”. The MIC [16] was greater than 32 µg/mL, the MBC [17] was greater than 32 µg/mL and the MIC [18] was greater than 32 µg/mL. The MIC [19] was greater than 32 µg/mL, the Stability [20] was “Stable” and the MBC [21] was greater than 32 µg/mL. For the same compound, the Stability [22] was “Stable”, the MIC [23] was greater than 32 µg/mL and the MBC [24] was greater than 32 µg/mL.

For `NC[C@H]1O[C@H](O[C@H]2[C@H](O)[C@@H](O[C@H]3O[C@H](CO)[C@@H](O)[C@H](N)[C@H]3O)[C@H](N)C[C@@H]2N)[C@H](O)[C@@H](O)[C@@H]1O` [KANAMYCIN], the MIC [1] was greater than 32 µg/mL, the MIC [4] was 2 µg/mL (≈ 4.13 µM) and the MIC [5] was 0.5 µg/mL (≈ 1.03 µM). The MIC [6] was 1 µg/mL (≈ 2.06 µM), the MBC [8] was 1 µg/mL (≈ 2.06 µM) and the MBC [9] was greater than 32 µg/mL. For the same compound, the MIC [11] was 2 µg/mL (≈ 4.13 µM), the MBC [12] was 0.5 µg/mL (≈ 1.03 µM) and the MIC [16] was greater than 32 µg/mL. The MIC [18] was 8 µg/mL (≈ 16.5 µM), the MIC [19] was 2 µg/mL (≈ 4.13 µM) and the MIC [23] was 2 µg/mL (≈ 4.13 µM). For the same compound, the MBC [24] was greater than 32 µg/mL.

Compound `CO[C@H]1/C=C/O[C@@]2(C)Oc3c(C)c(O)c4c(O)c(c(/C=N/N5CCN(C)CC5)c(O)c4c3C2=O)NC(=O)/C(C)=C\C=C\[C@H](C)[C@H](O)[C@@H](C)[C@@H](O)[C@@H](C)[C@H](OC(C)=O)[C@@H]1C` [RIFAMPIN] has an MIC [1] greater than 32 µg/mL, an MIC [4] of 4 µg/mL (≈ 4.86 µM) and an MIC [5] of 8 µg/mL (≈ 9.72 µM). It also gave an MIC [6] of 0.03 µg/mL (≈ 0.0365 µM), an MBC [8] of 0.06 µg/mL (≈ 0.0729 µM) and an MIC [11] of 16 µg/mL (≈ 19.4 µM). The MBC [12] was 8 µg/mL (≈ 9.72 µM), the MIC [16] was 8 µg/mL (≈ 9.72 µM) and the MIC [18] was 0.25 µg/mL (≈ 0.304 µM). It also gave an MIC [19] of 1 µg/mL (≈ 1.22 µM), an MIC [23] of 0.004 µg/mL (≈ 0.00486 µM) and an MBC [24] greater than 32 µg/mL.
